# According to patent publication US20080161232A1, “C5a Receptor Antagonist” (JERINI AG, priority 2005, published 2008):
# Starred links: 1 amine or outer side, 2 acyl side, 3 side chain; linkers in the order of their positions; H or OH if unused. Non-standard residues stand in square brackets, D forms with d. Residues, ends and D or L forms follow the SMILES beside them. *: point of attachment. Phe(3-Cl) = N[C@@H](Cc1cccc(Cl)c1)C(=O)O; Phe(4-Cl) = N[C@@H](Cc1ccc(Cl)cc1)C(=O)O; Phe(4-F) = N[C@@H](Cc1ccc(F)cc1)C(=O)O; 1Nal = N[C@@H](Cc1cccc2ccccc12)C(=O)O; Bta = N[C@@H](Cc1csc2ccccc12)C(=O)O; d(hCha) = N[C@H](CCC1CCCCC1)C(=O)O; Hydrocinnamoyl = O=C(CCc1ccccc1)*; Hyp = O=C(O)[C@@H]1C[C@@H](O)CN1; Tic = O=C(O)[C@@H]1Cc2ccccc2CN1; 2Thi = N[C@@H](Cc1cccs1)C(=O)O; dCha = N[C@H](CC1CCCCC1)C(=O)O; dChg = N[C@@H](C(=O)O)C1CCCCC1; Butoxycarbonyl = CCCCOC(=O)*; Phg = N[C@H](C(=O)O)c1ccccc1; Pip = O=C(O)[C@@H]1CCCCN1; Orn = NCCC[C@H](N)C(=O)O; Aze = O=C(O)[C@@H]1CCN1; CO = O=C([*:1])[*:2]; NHPh = c1ccc(N*)cc1; Ms = CS(=O)(=O)*
# Target: T1, human C5aR(CD88) (Homo sapiens, UniProt P21730)
# T1 construct: expressed in transfected cells; host or cells: rat basophilic leukemia cells (RBL)
# T1 sequence (P21730 1-350): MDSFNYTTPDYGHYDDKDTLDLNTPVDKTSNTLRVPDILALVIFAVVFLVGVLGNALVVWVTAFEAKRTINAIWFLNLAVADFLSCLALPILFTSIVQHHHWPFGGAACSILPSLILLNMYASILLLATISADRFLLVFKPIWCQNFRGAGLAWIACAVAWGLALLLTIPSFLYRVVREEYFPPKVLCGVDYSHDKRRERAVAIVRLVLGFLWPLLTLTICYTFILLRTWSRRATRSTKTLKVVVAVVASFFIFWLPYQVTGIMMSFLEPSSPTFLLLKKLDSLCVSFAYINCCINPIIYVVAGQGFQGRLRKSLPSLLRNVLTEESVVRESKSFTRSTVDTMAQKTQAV
# Assay: Determination of the IC50 value in an enzyme release assay (functional assay, antagonistic activity)
# Type: cell-based
# Details: antagonistic activity; IC50 group in enzyme release assay, RBL cells expressing human C5aR(CD88); read-out: activity (group)
row,IC50 [µM],Compound
1,0.05 to 0.2,"CC(=O)N[C@@H](Cc1ccccc1)C(=O)N[C@@H](CCCN)C(=O)N1CCC[C@H]1C(=O)N[C@H](CC1CCCCC1)C(=O)N[C@@H](Cc1c[nH]c2ccccc12)C(=O)N[C@@H](Cc1cccs1)C(N)=O [Compound 80, Ac-Phe-Orn-Pro-cha-Trp-Thi-NH2] (Ac-F[Orn]P[dCha]W[2Thi]-NH2)"
2,0.2 to 2,"CC(=O)N[C@@H](Cc1ccccc1)C(=O)N[C@@H](CCCN)C(=O)N1CC[C@H]1C(=O)N[C@H](CC1CCCCC1)C(=O)N[C@@H](Cc1ccc(Cl)cc1)C(=O)N[C@@H](Cc1ccccc1)C(N)=O [Compound 81, Ac-Phe-Orn-Aze-cha-Pcf-Phe-NH2] (Ac-F[Orn][Aze][dCha][Phe(4-Cl)]F-NH2)"
3,0.05 to 0.2,"CC(=O)NCCC[C@H](NC(=O)[C@H](Cc1ccccc1)NC(C)=O)C(=O)N1CCC[C@H]1C(=O)N[C@H](CC1CCCCC1)C(=O)N[C@@H](Cc1c[nH]c2ccccc12)C(=O)N[C@@H](Cc1ccccc1)C(N)=O [Compound 82, Ac-Phe-Orn(Ac)-Pro-cha-Trp-Phe-NH2] (Ac-F[Orn](Ac)P[dCha]WF-NH2)"
4,0.05 to 0.2,"CC(=O)N[C@@H](Cc1ccccc1)C(=O)N[C@@H](CCCCN)C(=O)N1CCC[C@H]1C(=O)N[C@H](CC1CCCCC1)C(=O)N[C@@H](Cc1c[nH]c2ccccc12)C(=O)N[C@@H](Cc1ccccc1)C(N)=O [Compound 87, Ac-Phe-Lys-Pro-cha-Trp-Phe-NH2] (Ac-FKP[dCha]WF-NH2)"
5,0.2 to 2,"CC(=O)N[C@@H](Cc1ccccc1)C(=O)N[C@@H](CCC(N)=O)C(=O)N1CCC[C@H]1C(=O)N[C@H](CC1CCCCC1)C(=O)N[C@@H](Cc1c[nH]c2ccccc12)C(=O)N[C@@H](Cc1ccccc1)C(N)=O [Compound 89, Ac-Phe-Gln-Pro-cha-Trp-Phe-NH2] (Ac-FQP[dCha]WF-NH2)"
6,0.2 to 2,"CC(=O)N[C@@H](Cc1ccccc1)C(=O)N[C@@H](CO)C(=O)N1CCC[C@H]1C(=O)N[C@H](CC1CCCCC1)C(=O)N[C@@H](Cc1c[nH]c2ccccc12)C(=O)N[C@@H](Cc1ccccc1)C(N)=O [Compound 90, Ac-Phe-Ser-Pro-cha-Trp-Phe-NH2] (Ac-FSP[dCha]WF-NH2)"
7,0.2 to 2,"CC(=O)N[C@@H](Cc1ccccc1)C(=O)N[C@@H](CCC(=O)O)C(=O)N1CCC[C@H]1C(=O)N[C@H](CC1CCCCC1)C(=O)N[C@@H](Cc1c[nH]c2ccccc12)C(=O)N[C@@H](Cc1ccccc1)C(N)=O [Compound 91, Ac-Phe-Glu-Pro-cha-Trp-Phe-NH2] (Ac-FEP[dCha]WF-NH2)"
8,0.02 to 0.05,"CC(=O)N[C@@H](Cc1ccccc1)C(=O)N[C@@H](CCCN)C(=O)N1CCC[C@H]1C(=O)N[C@H](CC1CCCCC1)C(=O)N[C@@H](Cc1c[nH]c2ccccc12)C(=O)N[C@@H](Cc1cccc2ccccc12)C(N)=O [Compound 94, Ac-Phe-Orn-Pro-cha-Trp-1Ni—NH2] (Ac-F[Orn]P[dCha]W[1Nal]-NH2)"
9,0.2 to 2,"CNC(=O)[C@H](Cc1ccccc1)NC(=O)[C@H](Cc1csc2ccccc12)NC(=O)[C@@H](CC1CCCCC1)NC(=O)[C@@H]1CCN1C(=O)[C@H](CCCN)NC(=O)[C@H](Cc1ccccc1)NC(C)=O [Compound 95, Ac-Phe-Orn-Aze-cha-Bta-Phe-NH—Me] (Ac-F[Orn][Aze][dCha][Bta]F-NHMe)"
10,0.02 to 0.05,"CS(=O)(=O)N[C@@H](Cc1ccccc1)C(=O)N[C@@H](CCCN)C(=O)N1CC[C@H]1C(=O)N[C@H](CC1CCCCC1)C(=O)N[C@@H](Cc1csc2ccccc12)C(=O)N[C@@H](Cc1ccccc1)C(N)=O [Compound 96, CH3—SO2-Phe-Orn-Aze-cha-Bta-Phe-NH2] (Ms-F[Orn][Aze][dCha][Bta]F-NH2)"
11,0.05 to 0.2,"CC(=O)N[C@@H](Cc1ccccc1)C(=O)N[C@@H](CCCN)C(=O)N1CC[C@H]1C(=O)N[C@H](CC1CCCCC1)C(=O)N[C@@H](Cc1ccc(F)cc1)C(=O)N[C@@H](Cc1ccccc1)C(N)=O [Compound 99, Ac-Phe-Orn-Aze-cha-Pff-Phe-NH2] (Ac-F[Orn][Aze][dCha][Phe(4-F)]F-NH2)"
12,0.05 to 0.2,"CC(=O)N[C@@H](Cc1ccccc1)C(=O)N[C@@H](CCCN)C(=O)N1CC[C@H]1C(=O)N[C@H](CC1CCCCC1)C(=O)N[C@@H](Cc1cccc(Cl)c1)C(=O)N[C@@H](Cc1ccccc1)C(N)=O [Compound 100, Ac-Phe-Orn-Aze-cha-Mcf-Phe-NH2] (Ac-F[Orn][Aze][dCha][Phe(3-Cl)]F-NH2)"
13,0.05 to 0.2,"CC(=O)N[C@@H](Cc1ccccc1)C(=O)N[C@@H](CCCNC(=N)N)C(=O)N1CCC[C@H]1C(=O)N[C@H](CC1CCCCC1)C(=O)N[C@@H](Cc1c[nH]c2ccccc12)C(=O)N[C@@H](Cc1ccccc1)C(N)=O [Compound 104, Ac-Phe-Arg-Pro-cha-Trp-Phe-NH2] (Ac-FRP[dCha]WF-NH2)"
14,0.05 to 0.2,"NCCC[C@H](NC(=O)CCc1ccccc1)C(=O)N1CC[C@H]1C(=O)N[C@H](CC1CCCCC1)C(=O)N[C@@H](Cc1csc2ccccc12)C(=O)N[C@@H](Cc1ccccc1)C(N)=O [Compound 106, 3PP-Orn-Aze-cha-Bta-Phe-NH2] (Hydrocinnamoyl-[Orn][Aze][dCha][Bta]F-NH2)"
15,0.02 to 0.05,"CC(=O)N[C@@H](Cc1ccccc1)C(=O)N[C@@H](CCCN)C(=O)N[C@@H](CO)C(=O)N[C@H](CC1CCCCC1)C(=O)N[C@@H](Cc1c[nH]c2ccccc12)C(=O)N[C@@H](Cc1ccccc1)C(N)=O [Compound 108, Ac-Phe-Orn-Ser-cha-Trp-Phe-NH2] (Ac-F[Orn]S[dCha]WF-NH2)"
16,0.05 to 0.2,"CC(=O)N[C@@H](Cc1ccccc1)C(=O)N[C@@H](CCCN)C(=O)N1CCC[C@H]1C(=O)N[C@@H](C(=O)N[C@@H](Cc1c[nH]c2ccccc12)C(=O)N[C@@H](Cc1ccccc1)C(N)=O)C1CCCCC1 [Compound 109, Ac-Phe-Orn-Pro-chg-Trp-Phe-NH2] (Ac-F[Orn]P[dChg]WF-NH2)"
17,0.02 to 0.05,"CC(=O)N[C@@H](Cc1ccccc1)C(=O)N[C@@H](CCCN)C(=O)N1CCC[C@H]1C(=O)N[C@H](CCC1CCCCC1)C(=O)N[C@@H](Cc1c[nH]c2ccccc12)C(=O)N[C@@H](Cc1ccccc1)C(N)=O [Compound 110, Ac-Phe-Orn-Pro-hch-Trp-Phe-NH2] (Ac-F[Orn]P[d(hCha)]WF-NH2)"
18,0.2 to 2,"CC(=O)N[C@@H](Cc1ccccc1)C(=O)N[C@@H](CCCN)C(=O)N1CCC[C@H]1C(=O)N[C@H](CC1CCCCC1)C(=O)N[C@@H](Cc1c[nH]c2ccccc12)C(=O)N[C@H](C(N)=O)c1ccccc1 [Compound 111, Ac-Phe-Orn-Pro-cha-Trp-Phg-NH2] (Ac-F[Orn]P[dCha]W[Phg]-NH2)"
19,0.02 to 0.05,"CC(=O)N[C@@H](Cc1ccccc1)C(=O)N[C@@H](Cc1csc2ccccc12)C(=O)N1CC[C@H]1C(=O)N[C@H](CC1CCCCC1)C(=O)N[C@@H](Cc1csc2ccccc12)C(=O)N[C@@H](Cc1ccccc1)C(N)=O [Compound 112, Ac-Phe-Bta-Aze-cha-Bta-Phe-NH2] (Ac-F[Bta][Aze][dCha][Bta]F-NH2)"
20,0.05 to 0.2,"CC(=O)N[C@@H](Cc1ccccc1)C(=O)N[C@@H](Cc1c[nH]c2ccccc12)C(=O)N1CCC[C@H]1C(=O)N[C@H](CC1CCCCC1)C(=O)N[C@@H](Cc1csc2ccccc12)C(=O)N[C@@H](Cc1ccccc1)C(N)=O [Compound 113, Ac-Phe-Trp-Pro-cha-Bta-Phe-NH2] (Ac-FWP[dCha][Bta]F-NH2)"

row,Compound,IC50 [µM]
1,"NCCC[C@H](NC(=O)[C@H](Cc1ccccc1)NC(=O)Nc1ccccc1)C(=O)N1CCC[C@H]1C(=O)N[C@H](CC1CCCCC1)C(=O)N[C@@H](Cc1c[nH]c2ccccc12)C(=O)N[C@@H](Cc1ccccc1)C(N)=O [Compound 85, Ph-NH—CO-Phe-Orn-Pro-cha-Trp-Phe-NH2] ({NHPh-CO}-F[Orn]P[dCha]WF-NH2)",0.05 to 0.2
2,"CCCCOC(=O)N[C@@H](Cc1ccccc1)C(=O)N[C@@H](CCCN)C(=O)N1CCC[C@H]1C(=O)N[C@H](CC1CCCCC1)C(=O)N[C@@H](Cc1c[nH]c2ccccc12)C(=O)N[C@@H](Cc1ccccc1)C(N)=O [Compound 86, Bu-O—CO-Phe-Orn-Pro-cha-Trp-Phe-NH2] (Butoxycarbonyl-F[Orn]P[dCha]WF-NH2)",0.2 to 2
3,"CC(=O)N[C@@H](Cc1ccccc1)C(=O)N[C@@H](CCCN)C(=O)N1CCCC[C@H]1C(=O)N[C@H](CC1CCCCC1)C(=O)N[C@@H](Cc1c[nH]c2ccccc12)C(=O)N[C@@H](Cc1ccccc1)C(N)=O [Compound 92, Ac-Phe-Orn-Pip-cha-Trp-Phe-NH2] (Ac-F[Orn][Pip][dCha]WF-NH2)",0.05 to 0.2
4,"CC(=O)N[C@@H](Cc1ccccc1)C(=O)N[C@@H](CCCN)C(=O)N1C[C@H](O)C[C@H]1C(=O)N[C@H](CC1CCCCC1)C(=O)N[C@@H](Cc1c[nH]c2ccccc12)C(=O)N[C@@H](Cc1ccccc1)C(N)=O [Compound 93, Ac-Phe-Orn-Hyp-cha-Trp-Phe-NH2] (Ac-F[Orn][Hyp][dCha]WF-NH2)",0.2 to 2
5,"CC(=O)N[C@@H](Cc1ccccc1)C(=O)N[C@@H](CCCN)C(=O)N1Cc2ccccc2C[C@H]1C(=O)N[C@H](CC1CCCCC1)C(=O)N[C@@H](Cc1c[nH]c2ccccc12)C(=O)N[C@@H](Cc1ccccc1)C(N)=O [Compound 107, Ac-Phe-Orn-Tic-cha-Trp-Phe-NH2] (Ac-F[Orn][Tic][dCha]WF-NH2)",0.05 to 0.2
6,"CC(=O)N[C@@H](Cc1ccccc1)C(=O)N[C@@H](CCCN)C(=O)N1CCCC[C@H]1C(=O)N[C@H](CC1CCCCC1)C(=O)N[C@@H](Cc1c[nH]c2ccccc12)C(=O)N[C@@H](Cc1ccccc1)C(=O)O [Compound 115, Ac-Phe-Orn-Pip-cha-Trp-Phe-OH] (Ac-F[Orn][Pip][dCha]WF-OH)",0.2 to 2
7,"CC(=O)N[C@@H](Cc1ccccc1)C(=O)N[C@@H](CCCN)C(=O)N1Cc2ccccc2C[C@H]1C(=O)N[C@H](CC1CCCCC1)C(=O)N[C@@H](Cc1c[nH]c2ccccc12)C(=O)N[C@@H](Cc1ccccc1)C(=O)O [Compound 116, Ac-Phe-Orn-Tic-cha-Trp-Phe-OH] (Ac-F[Orn][Tic][dCha]WF-OH)",0.2 to 2
